“Also recorded” adds a separate entry of the source. Like-named read-outs stand apart in the source and are kept apart here.
Key:
[1] = target: T1, human α2A-adrenergic receptor (α2AAR) (Homo sapiens, UniProt P08913); assay: BRET between α2AAR and tagged G protein subunits (Gβ1, Gγ2, Gαi1-91Rluc, Gαi1-122Rluc) in living HEK293T cells; assay type: cell-based; details: for effect of pre-treatment on agonist-promoted changes in BRET between α2AAR and G protein subunits: pertussis toxin 16 h at 37° C., UK14,304, FIG. 21
T1 construct: expressed in transfected cells; host or cells: HEK293T (transient)
T1 sequence (P08913 1-465): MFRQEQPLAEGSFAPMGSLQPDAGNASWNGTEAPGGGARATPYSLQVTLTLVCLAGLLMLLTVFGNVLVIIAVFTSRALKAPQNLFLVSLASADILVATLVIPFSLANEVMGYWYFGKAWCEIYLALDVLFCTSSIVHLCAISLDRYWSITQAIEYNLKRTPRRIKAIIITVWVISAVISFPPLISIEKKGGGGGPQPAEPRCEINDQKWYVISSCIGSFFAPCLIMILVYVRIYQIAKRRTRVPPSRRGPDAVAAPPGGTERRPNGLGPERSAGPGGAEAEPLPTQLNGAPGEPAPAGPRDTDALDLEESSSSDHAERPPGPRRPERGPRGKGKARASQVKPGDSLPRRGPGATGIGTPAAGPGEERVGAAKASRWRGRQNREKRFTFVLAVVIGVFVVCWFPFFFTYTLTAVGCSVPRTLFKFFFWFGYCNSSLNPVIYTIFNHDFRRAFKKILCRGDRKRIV
Description: (§1) Rluc-tagged receptors and G protein constructs were transiently co-transfected in HEK293T cells. […] For the experiment using α2AAR-Rluc (FIG. 4f), the G protein heterotrimer was complimented with the most specific Gαi2. Forty-eight hours post-transfection, cells were washed twice with PBS, detached with PBS-5 mM EDTA and resuspended in PBS-0.1% glucose at RT. Cells (50 μg of proteins per well) were then distributed in a 96-well microplate (white Optiplate, PerkinElmer) and incubated in the presence or absence of different ligands for 1 min except in the case of the kinetic studies where the times are indicated. DeepBlueC™ coelenterazine (PerkinElmer) was added at a final concentration of 5 μM, and readings (except for the kinetic studies; see below) were collected using a modified top-count apparatus (TopCount.NX™, Packard Bioscience) that allows the sequential integration of the signals detected in the 370-450 nm and 500-530 nm windows using filters with the appropriate band pass (Chroma). The BRET signal was determined by calculating the ratio of the light emitted by GFP10 (500-530 nm) over the light emitted by the Rluc (370-450 nm). The net BRET values were obtained by subtracting the BRET background signal detected when the Rluc-tagged construct was expressed alone from BRET signals detected in cells coexpressing both Rluc- and GFP10-tagged constructs. […] The expression level of each protein was determined by direct measurement of total fluorescence and luminescence on aliquots of the transfected cells. The GFP10 total fluorescence was measured using a FluoroCount (PerkinElmer) with an excitation filter at 400 nm, an emission at 510 nm, and the following parameters: gain 1; PMT 1100 V; time 1.0 s. After fluorescence measurement, the same cells were incubated for 8 min with Coelenterazine h (Molecular Probes) at a final concentration of 5 μM and the total luminescence of cells was measured using a LumiCount (PerkinElmer Life Sciences) with the following parameters: gain 1; PMT 900 V; time 0.5 s. […] To avoid variations in the BRET signal that could result from fluctuations in the relative expression levels of the energy donor and acceptor, transfection conditions were designed so as to maintain a constant GFP10/Rluc expression ratio in each experimental set.
For kinetic analysis of receptor/Gαβγ interactions, DeepBlueC™ or Coelenterazine h luciferase substrate was added prior to the injection of the different ligands using the Mithras LB 940 apparatus (Berthold) and MicroWin2000 software. Readings were then collected at 0.05 or 0.1 sec intervals. Injection of the different ligands was included with in the kinetic program to allow a baseline recording followed by real-time recording of the BRET changes. The BRET signals were determined for each time by calculating the ratio of the light emitted by GFP over that emitted by the Rluc. To determine the half-time (t½) of Iso-induced BRET, data were represented as the difference between the Iso-induced BRET signals and the average of basal BRET signal (net agonist-promoted BRET signal). Curves were fitted using a non-linear regression and one phase exponential association fit equation (GraphPad Prism).
For agonist stimulations longer than 1 minute, cells were first treated with the ligand (agonist, antagonist, inverse agonist) and DeepBlueC™ coelenterazine added immediately before BRET readings in the modified TopCount.NXT™ apparatus. For these experiments, readings were taken directly in 96 well plates 72 hours post-transfection without detaching the cells.

[2] = target: T2, α2AAR (Homo sapiens, UniProt P08913); assay: BRET between Gαi1-Rluc and GFP10-Gγ2 in the presence of α2AAR (Gα/Gβγ interaction); assay type: cell-based
T2 construct: expressed in transfected cells; host or cells: HEK293T
T2 sequence (P08913 1-465): T1 sequence (P08913 1-465)
Description: as §1

[3] = target: T3, β2-adrenergic receptor (β2AR) (Homo sapiens, UniProt P07550); assay: BRET2 receptor/G protein interaction assay: β2AR-Rluc (or β2AR-GFP10) with tagged G protein subunits in living HEK293T cells; assay type: cell-based
T3 construct: expressed in transfected cells; host or cells: HEK293T (transient, calcium phosphate)
Description: Rluc-tagged receptors and G protein constructs were transiently co-transfected in HEK293T cells. […] For the experiment using α2AAR-Rluc (FIG. 4f), the G protein heterotrimer was complimented with the most specific Gαi2. Forty-eight hours post-transfection, cells were washed twice with PBS, detached with PBS-5 mM EDTA and resuspended in PBS-0.1% glucose at RT. Cells (50 μg of proteins per well) were then distributed in a 96-well microplate (white Optiplate, PerkinElmer) and incubated in the presence or absence of different ligands for 1 min except in the case of the kinetic studies where the times are indicated. DeepBlueC™ coelenterazine (PerkinElmer) was added at a final concentration of 5 μM, and readings (except for the kinetic studies; see below) were collected using a modified top-count apparatus (TopCount.NX™, Packard Bioscience) that allows the sequential integration of the signals detected in the 370-450 nm and 500-530 nm windows using filters with the appropriate band pass (Chroma). The BRET signal was determined by calculating the ratio of the light emitted by GFP10 (500-530 nm) over the light emitted by the Rluc (370-450 nm). The net BRET values were obtained by subtracting the BRET background signal detected when the Rluc-tagged construct was expressed alone from BRET signals detected in cells coexpressing both Rluc- and GFP10-tagged constructs. […]

[4] = target: T3, β2-adrenergic receptor (β2AR); assay: BRET in membrane preparations from HEK293T cells co-expressing β2AR-Rluc and GFP10-Gβ1 or GFP10-Gγ2; assay type: biochemical; details: membranes
Description: Treatments: Iso, 10 μM; Feno, 10 μM; ICI, 100 μM; GTPγS, 200 μM. […] Rluc-tagged receptors and G protein constructs were transiently co-transfected in HEK293T cells. […] Forty-eight hours post-transfection, cells were washed twice with PBS, detached with PBS-5 mM EDTA and resuspended in PBS-0.1% glucose at RT. […] DeepBlueCTM coelenterazine (PerkinElmer) was added at a final concentration of 5 μM, and readings (except for the kinetic studies; see below) were collected using a modified top-count apparatus (TopCount.NXTM, Packard Bioscience) that allows the sequential integration of the signals detected in the 370-450 nm and 500-530 nm windows using filters with the appropriate band pass (Chroma). […] The net BRET values were obtained by subtracting the BRET background signal detected when the Rluc-tagged construct was expressed alone from BRET signals detected in cells coexpressing both Rluc- and GFP10-tagged constructs. […] The expression level of each protein was determined by direct measurement of total fluorescence and luminescence on aliquots of the transfected cells. […] To avoid variations in the BRET signal that could result from fluctuations in the relative expression levels of the energy donor and acceptor, transfection conditions were designed so as to maintain a constant GFP10/Rluc expression ratio in each experimental set.

[5] = untagged α2AAR, ligands 10 μM, FIG. 27A, 27C

Compound: Brc1c(NC2=NCCN2)ccc2nccnc12 [UK14,304]
- change in BRET1, Gαi1-91Rluc / α2AAR-Venus, measured concomitantly with BRET2 in the same cells [1]: increase in the BRET
- change in BRET2, Gαi1-91Rluc / α2AAR-GFP2 [1]: significantly increased the BRET
- change in BRET2, α2AAR-Rluc / GFP10-Gβ1 [1]: significantly increased the BRET
- change in BRET2, α2AAR-Rluc / GFP10-Gγ2 [1]: significantly increased the BRET
- loss (decrease) of BRET signal, α2AAR-Rluc / GFP10-Gγ2 [1]: 24%
- real-time BRET1 change, Gαi1-91Rluc / α2AAR-Venus [1]: rapid increases in the BRET
- real-time BRET1 change, Rluc-Gγ2 / α2AAR-Venus [1]: rapid increases in the BRET
- real-time BRET1 change, α2AAR-Venus / Gαi1-122Rluc [1]: rapid decrease in BRET^1
- time BRET levels reached following agonist stimulation remained constant, α2AAR-Venus pairs [1]: at least 12 seconds
- change in BRET2, Gαi1-91Rluc / GFP10-Gγ2, measured concomitantly with BRET1 in the same cells [2]: decrease in BRET^2
- change in BRET, Gαi1-91Rluc / GFP10-Gγ2 [2]: promoted a reduction of BRET; also recorded: decreased the BRET
- change in BRET, Gαi1-122Rluc / GFP10-Gγ2 [2]: promoted a reduction of BRET; also recorded: decreased the BRET

Compound: COC(=O)[C@@H]1[C@H]2C[C@H]3c4[nH]c5ccccc5c4CCN3C[C@@H]2CC[C@@H]1O [yohimbine, Yohimbine]
- change in BRET2, Gαi1-91Rluc / α2AAR-GFP2 [1]: little or no effect
- change in BRET2, Gαi1-122Rluc / α2AAR-GFP2 [1]: promoted a decrease in the BRET
- change in BRET2, α2AAR-Rluc / GFP10-Gβ1 [1]: little or no effect
- change in BRET2, α2AAR-Rluc / GFP10-Gγ2 [1]: little or no effect
- modulation of BRET, Gαi1-Rluc / α2AAR-GFP10 [1]: unable to modulate the BRET signal
- change in BRET, Gαi1-91Rluc / GFP10-Gγ2 [2, 5]: no effect on the BRET signal
- change in BRET, Gαi1-122Rluc / GFP10-Gγ2 [2, 5]: significant decrease in the BRET signal

Compound: AVP: Vasopressin-selective agonist (V2R)
- modulation of BRET signal, β2AR-Rluc / GFP-Gγ2 or GFP-Gβ1, in cells also expressing Myc-V2R ([3]; 10 μM AVP, specificity control, FIG. 7): unable to modulate BRET signal

Compound: CC(Cc1ccc(O)cc1)NCC(O)c1cc(O)cc(O)c1 (stereo not shown) [fenoterol]
- ligand-promoted BRET response, β2AR-Rluc / GFP10-Gβ1 or GFP10-Gγ2, compared with isoproterenol ([3]; Feno 10 μM, Iso 10 μM, FIG. 3C): promoted only a fraction of the response evoked by the full agonist isoproterenol

Compound: Cc1cccc([C@H](C)c2cnc[nH]2)c1C [dexmedetomidine, Dexmedetomidine]
- change in BRET2, Gαi1-91Rluc / α2AAR-GFP2 [1]: partial increase in BRET
- change in BRET2, Gαi1-122Rluc / α2AAR-GFP2 [1]: larger responses
- change in BRET2, α2AAR-Rluc / GFP10-Gβ1 [1]: partial increase in BRET
- change in BRET2, α2AAR-Rluc / GFP10-Gγ2 [1]: partial increase in BRET
- modulation of BRET, Gαi1-Rluc / α2AAR-GFP10 [1]: induced only a fraction of the full agonist modulation UK14304
- change in BRET, Gαi1-91Rluc / GFP10-Gγ2 [2, 5]: decreased the BRET
- change in BRET, Gαi1-122Rluc / GFP10-Gγ2 [2, 5]: decreased the BRET

Compound: pertussis toxin
- effect of pre-treatment on agonist-promoted changes in BRET between α2AAR and G protein subunits [1]: blocked
- effect of pre-treatment on agonist-promoted changes in BRET between α2AAR and G protein subunits ([1]; listed as PTX): greatly blunted agonist-promoted BRET changes
- effect of treatment on UK14,304-promoted BRET changes, Gαi1-91Rluc or Gαi1-122Rluc / GFP10-Gγ2 ([2]; pertussis toxin 16 h at 37° C., FIG. 21): abolished

Compound: Nc1nc2c(ncn2[C@@H]2O[C@H](COP(=O)(O)OP(=O)(O)OP(=O)(O)O)[C@@H](O)[C@H]2O)c(=O)[nH]1 [GTP, Guanosine triphosphate]
- effect of GTP on basal and agonist-stimulated BRET, β2AR-Rluc / GFP-Gβ1 or GFP-Gγ2 ([4]; high GTP concentrations, 90 min at 25° C., Iso 10 μM, FIG. 9): GTP sensitive

Compound: Nc1nc2c(ncn2[C@@H]2O[C@H](COP(=O)(O)OP(=O)(O)OP(O)(O)=S)[C@@H](O)[C@H]2O)c(=O)[nH]1 [GTPγS]
- effect on agonist-promoted BRET signal, β2AR-Rluc / GFP10-Gβ1 or GFP10-Gγ2 ([4]; GTPγS 200 μM, 90 min at 25° C. pretreatment, Iso 10 μM): attenuated the agonist-promoted signal
- effect on basal BRET in the absence of agonist, β2AR-Rluc / GFP10-Gβ1 or GFP10-Gγ2 ([4]; GTPγS 200 μM, 90 min at 25° C. pretreatment): reduced the basal BRET

Compound: Clc1cccc(Cl)c1N=C1NCCN1 [clonidine, Clonidine]
- change in BRET2, Gαi1-91Rluc / α2AAR-GFP2 [1]: partial increase in BRET
- change in BRET2, α2AAR-Rluc / GFP10-Gβ1 [1]: partial increase in BRET
- change in BRET2, α2AAR-Rluc / GFP10-Gγ2 [1]: partial increase in BRET
- modulation of BRET, Gαi1-Rluc / α2AAR-GFP10 [1]: induced only a fraction of the full agonist modulation UK14304
- change in BRET, Gαi1-91Rluc / GFP10-Gγ2 [2]: decreased the BRET
- change in BRET, Gαi1-122Rluc / GFP10-Gγ2 [2]: decreased the BRET

Compound: COC1(C2=NCCN2)COc2ccccc2O1 (stereo not shown) [RX821002]
- effect of pretreatment on UK14,304-promoted BRET increase, α2AAR / G protein pairs ([1]; FIG. 25): completely blocked the UK14,304-promoted BRET increase
- effect of preincubation on agonist-stimulated BRET response, Gαi1-Rluc / α2AAR-GFP10 ([1]; agonist UK14304, FIG. 3E): completely blocked the agonist-stimulated response
- modulation of BRET, Gαi1-Rluc / α2AAR-GFP10 ([1]; ligands 10 μM, FIG. 3E): unable to modulate the BRET signal
- change in BRET2, Gαi1-91Rluc / α2AAR-GFP2 ([1]; ligands 10 μM, FIG. 20, 25): little or no effect
- change in BRET2, Gαi1-122Rluc / α2AAR-GFP2 ([1]; ligands 10 μM, FIG. 20, 25): promoted a decrease in the BRET
- change in BRET2, α2AAR-Rluc / GFP10-Gβ1 ([1]; ligands 10 μM, FIG. 20, 25): little or no effect
- change in BRET2, α2AAR-Rluc / GFP10-Gγ2 ([1]; ligands 10 μM, FIG. 20, 25): little or no effect
- change in BRET, Gαi1-91Rluc / GFP10-Gγ2 [2, 5]: no effect on the BRET signal
- change in BRET, Gαi1-122Rluc / GFP10-Gγ2 [2, 5]: significant decrease in the BRET signal

Reference: patent publication US9029097B2, “Biosensors for monitoring receptor-mediated G-protein activation” (Universite de Montreal, priority 2005, dated 2015)
